According to the supplement of paper PMC10307832:

Key:
Assay in all cases: relative viability (nuclei count vs DMSO), 5 days (fraction); higher = more cells survive
Kobe2602 + Vorinostat = compound: C1=CC(=CC=C1NC(=S)NNC2=C(C=C(C=C2[N+](=O)[O-])C(F)(F)F)[N+](=O)[O-])F [Kobe2602] + O=C(CCCCCCC(=O)Nc1ccccc1)NO [Vorinostat] (partner 1 µM)
Summary of the method: (§1)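 Relative viability divides the nuclei count in treated wells by that in vehicle wells. Lung cancer cell lines were seeded in 1536-well plates, dosed by pin tool the next day, and fixed and stained after 5 days in one step with final 0.05% Triton X-100, 1% formaldehyde and 1 ug/ml Hoechst. Dosing was a single drug or a fixed anchor-drug dose plus five library-drug doses (not always all listed) in √10 steps, and values are medians of duplicate plates imaged at 4×.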

Zosuquidar + Bortezomib = compound: O[C@@H](COc1cccc2ncccc12)CN1CCN([C@@H]2c3ccccc3[C@@H]3[C@H](c4ccccc42)C3(F)F)CC1 [Zosuquidar] + CC(C)C[C@H](NC(=O)[C@H](Cc1ccccc1)NC(=O)c1cnccn1)B(O)O [Bortezomib] (partner 0.002 µM)
Summary of the method: as §1

Zosuquidar + Foretinib = compound: O[C@@H](COc1cccc2ncccc12)CN1CCN([C@@H]2c3ccccc3[C@@H]3[C@H](c4ccccc42)C3(F)F)CC1 [Zosuquidar] + COc1cc2c(Oc3ccc(NC(=O)C4(C(=O)Nc5ccc(F)cc5)CC4)cc3F)ccnc2cc1OCCCN1CCOCC1 [Foretinib] (partner 0.25 µM)
Summary of the method: as §1

Zosuquidar + Pemetrexed = compound: O[C@@H](COc1cccc2ncccc12)CN1CCN([C@@H]2c3ccccc3[C@@H]3[C@H](c4ccccc42)C3(F)F)CC1 [Zosuquidar] + Nc1nc2[nH]cc(CCc3ccc(C(=O)N[C@@H](CCC(=O)O)C(=O)O)cc3)c2c(=O)[nH]1 [Pemetrexed] (partner 0.2 µM)
Summary of the method: as §1

Cell Line UMC-11 has a relative viability (Kobe2602 + Vorinostat; first compound 0.2 µM) of 0.428, a relative viability (Kobe2602 + Vorinostat; first compound 0.6325 µM) of 0.39 and a relative viability (Kobe2602 + Vorinostat; first compound 2 µM) of 0.336. The relative viability (Kobe2602 + Vorinostat; first compound 6.325 µM) was 0.409, the relative viability (Kobe2602 + Vorinostat; first compound 20 µM) was 0.377 and the relative viability (Zosuquidar + Bortezomib; first compound 0.01 µM) was 0.654. The relative viability (Zosuquidar + Bortezomib; first compound 0.03162 µM) was 0.715, the relative viability (Zosuquidar + Bortezomib; first compound 0.1 µM) was 0.676 and the relative viability (Zosuquidar + Bortezomib; first compound 0.3162 µM) was 1.06. For the same cell line, the relative viability (Zosuquidar + Bortezomib; first compound 1 µM) was 0.625, the relative viability (Zosuquidar + Foretinib; first compound 0.01 µM) was 1.07 and the relative viability (Zosuquidar + Foretinib; first compound 0.03162 µM) was 1.01. For the same cell line, the relative viability (Zosuquidar + Foretinib; first compound 0.1 µM) was 1.19, the relative viability (Zosuquidar + Foretinib; first compound 0.3162 µM) was 1.12 and the relative viability (Zosuquidar + Foretinib; first compound 1 µM) was 0.987. It also gave a relative viability (Zosuquidar + Pemetrexed; first compound 0.01 µM) of 0.739, a relative viability (Zosuquidar + Pemetrexed; first compound 0.03162 µM) of 0.739 and a relative viability (Zosuquidar + Pemetrexed; first compound 0.1 µM) of 0.894. The relative viability (Zosuquidar + Pemetrexed; first compound 0.3162 µM) was 0.858 and the relative viability (Zosuquidar + Pemetrexed; first compound 1 µM) was 0.86.
